These are literature values, as cited in patent US8563051B2, “Herbal composition for weight management” (InQpharm Sdn Bhd, priority 2005, dated 2013).

For data set [1] the following is noted: doses in the range of 1 to 5 grams a day.
In data set [2] the test system is Ehrlich ascites tumor cell. The conditions noted are these: in vitro.
For data set [3] the following is noted: 8-week human clinical study, 26 subjects.
The conditions of data set [4]: human clinical weight loss trial.
The conditions of data set [5]: human clinical trial; blood levels not measured.
For data set [6] the following is noted: rodents.

Like-named read-outs stand apart in the source and are kept apart here.

Consider `O=C(O)CC(O)(C(=O)O)C(O)C(=O)O` (single isomer, unassigned; (-)) [HCA, (−)hydroxycitric acid], for which the safety assessment entry in data set [1] is “no relevant safety issues”.
As to `C[C@H]1[C@H](C)CC[C@]2(C(=O)O)CC[C@]3(C)C(=CC[C@@H]4[C@@]5(C)C[C@@H](O)[C@H](O)C(C)(C)[C@@H]5CC[C@]43C)[C@H]12` [Corosolic acid, 2-hydroxyursolic acid], the glucose transport activity result in data set [2] is on record as “stimulate significant glucose transport activity”. Also, the “glucose tolerance and blood sugar levels” value in data set [3] was “improved glucose tolerance and improved blood sugar levels”.
Regarding `O=C([O-])CC(O)(C(=O)[O-])C(O)C(=O)[O-].[Ca+2].[K+]` (stereo not drawn) [calcium and potassium hydroxycitrate], the weight loss result in data set [4] is recorded as “shown to be effective”.
Consider `O=C([O-])C[C@@](O)(C(=O)[O-])[C@H](O)C(=O)[O-].O=C([O-])C[C@@](O)(C(=O)[O-])[C@H](O)C(=O)[O-].[Ca+2].[Ca+2].[Ca+2]` [calcium salt of hydroxycitric acid], for which, in data set [5], the weight loss result was “ineffective for weight loss”.
Turning to sodium salt of hydroxycitric acid, the “food intake and weight” value in data set [6] was “reduce food intake and cause weight loss”.
